Laboratory results published in patent publication EP1025114B1, “3'-N-MODIFIED 6-O-SUBSTITUTED ERYTHROMYCIN KETOLIDE DERIVATIVES HAVING ANTIBACTERIAL ACTIVITY” (priority 1997, dated 1999).
Values after ≈ are worked out from the molar mass of the structure shown.

Columns and labels:
Assay in all cases: In vitro antibacterial activity, agar dilution MIC
Assay type in all cases: cell-based
[1] = system: Staphylococcus aureus A5177; conditions: Staphylococcus aureus A5177 (organism code BB); BHI agar, 35-37 °C, 20 to 24 hours; unit assumed
Method: (§1) Representative compounds of the present invention were assayed in vitro for antibacterial activity as follows: Twelve petri dishes containing successive aqueous dilutions of the test compound mixed with 10 mL of sterilized Brain Heart infusion (BHI) agar (Difco 0418-01-5) were prepared. Each plate was inoculated with 1:100 (or 1:10 for slow-growing strains, such as Micrococcus and Streptococcus) dilutions of up to 32 different microorganisms, using a Steers replicator block. […] In addition, a control plate, using BHI agar containing no test compound, was prepared and incubated at the beginning and end of each test.
(§2) An additional plate containing a compound having known susceptibility patterns for the organisms being tested and belonging to the same antibiotic class as the test compound was also prepared and incubated as a further control, as well as to provide test-to-test comparability.
(§3) After incubation, each plate was visually inspected. The minimum inhibitory concentration (MIC) was defined as the lowest concentration of drug yielding no growth, a slight haze, or sparsely isolated colonies on the inoculum spot as compared to the growth control.

Escherichia coli SS = Escherichia coli SS (organism code RR); BHI agar, 35-37 °C, 20 to 24 hours; unit assumed
Method: as §1, §2, §3

[2] = system: Mycobacterium smegmatis ATCC 114; conditions: Mycobacterium smegmatis ATCC 114 (organism code UU); BHI agar, 35-37 °C, 20 to 24 hours; unit assumed
Method: as §1, §2, §3

[3] = system: Staphylococcus aureus ATCC 6538P; conditions: Staphylococcus aureus ATCC 6538P (organism code AA); BHI agar, 35-37 °C, 20 to 24 hours; unit assumed
Method: as §1, §2, §3

[4] = system: Enterococcus faecium ATCC 8043; conditions: Enterococcus faecium ATCC 8043 (organism code II); BHI agar, 35-37 °C, 20 to 24 hours; unit assumed
Method: as §1, §2, §3

[5] = system: Streptococcus bovis A-5169; conditions: Streptococcus bovis A-5169 (organism code JJ); BHI agar, 35-37 °C, 20 to 24 hours; unit assumed
Method: as §1, §2, §3

[6] = system: Streptococcus pyogenes 930; conditions: Streptococcus pyogenes 930 (organism code MM); BHI agar, 35-37 °C, 20 to 24 hours; unit assumed
Method: as §1, §2, §3

[7] = system: Streptococcus Pheumoniae 5979; conditions: Streptococcus Pheumoniae 5979 (organism code ZZ); BHI agar, 35-37 °C, 20 to 24 hours; unit assumed
Method: as §1, §2, §3

[8] = system: Staphylococcus aureus NCTC10649M; conditions: Staphylococcus aureus NCTC10649M (organism code EE); BHI agar, 35-37 °C, 20 to 24 hours; unit assumed
Method: as §1, §2, §3

Candida albicans CCH 442 = Candida albicans CCH 442 (organism code TT); BHI agar, 35-37 °C, 20 to 24 hours; unit assumed
Method: as §1, §2, §3

[9] = system: Haemophilis Influenzae DILL AMP R; conditions: Haemophilis Influenzae DILL AMP R (organism code WW); BHI agar, 35-37 °C, 20 to 24 hours; unit assumed
Method: as §1, §2, §3

[10] = system: Streptococcus agalactiae CMX 508; conditions: Streptococcus agalactiae CMX 508 (organism code KK); BHI agar, 35-37 °C, 20 to 24 hours; unit assumed
Method: as §1, §2, §3

[11] = system: Nocardia Asteroides ATCC9970; conditions: Nocardia Asteroides ATCC9970 (organism code VV); BHI agar, 35-37 °C, 20 to 24 hours; unit assumed
Method: as §1, §2, §3

[12] = system: Staphylococcus aureus CMX 553; conditions: Staphylococcus aureus CMX 553 (organism code FF); BHI agar, 35-37 °C, 20 to 24 hours; unit assumed
Method: as §1, §2, §3

[13] = system: Staphylococcus aureus A-5278; conditions: Staphylococcus aureus A-5278 (organism code CC); BHI agar, 35-37 °C, 20 to 24 hours; unit assumed
Method: as §1, §2, §3

[14] = system: Streptococcus Pheumoniae 5649; conditions: Streptococcus Pheumoniae 5649 (organism code ZZA); BHI agar, 35-37 °C, 20 to 24 hours; unit assumed
Method: as §1, §2, §3

[15] = system: Staphylococcus aureus 1775; conditions: Staphylococcus aureus 1775 (organism code GG); BHI agar, 35-37 °C, 20 to 24 hours; unit assumed
Method: as §1, §2, §3

Escherichia coli DC-2 = Escherichia coli DC-2 (organism code SS); BHI agar, 35-37 °C, 20 to 24 hours; unit assumed
Method: as §1, §2, §3

[16] = system: Streptococcus pyogenes EES61; conditions: Streptococcus pyogenes EES61 (organism code LL); BHI agar, 35-37 °C, 20 to 24 hours; unit assumed
Method: as §1, §2, §3

[17] = system: Staphylococcus aureus CMX 642A; conditions: Staphylococcus aureus CMX 642A (organism code DD); BHI agar, 35-37 °C, 20 to 24 hours; unit assumed
Method: as §1, §2, §3

[18] = system: Streptococcus pyogenes PIU 2548; conditions: Streptococcus pyogenes PIU 2548 (organism code NN); BHI agar, 35-37 °C, 20 to 24 hours; unit assumed
Method: as §1, §2, §3

[19] = system: Streptococcus Pheumoniae ATCC6303; conditions: Streptococcus Pheumoniae ATCC6303 (organism code XX); BHI agar, 35-37 °C, 20 to 24 hours; unit assumed
Method: as §1, §2, §3

[20] = system: Streptococcus Pheumoniae GYR 1171; conditions: Streptococcus Pheumoniae GYR 1171 (organism code YY); BHI agar, 35-37 °C, 20 to 24 hours; unit assumed
Method: as §1, §2, §3

Escherichia coli JUHL = Escherichia coli JUHL (organism code QQ); BHI agar, 35-37 °C, 20 to 24 hours; unit assumed
Method: as §1, §2, §3

[21] = system: Micrococcus luteus ATCC 9341; conditions: Micrococcus luteus ATCC 9341 (organism code OO); BHI agar, 35-37 °C, 20 to 24 hours; unit assumed
Method: as §1, §2, §3

[22] = system: Micrococcus luteus ATCC 4698; conditions: Micrococcus luteus ATCC 4698 (organism code PP); BHI agar, 35-37 °C, 20 to 24 hours; unit assumed
Method: as §1, §2, §3

[23] = system: Staphylococcus epidermidis 3519; conditions: Staphylococcus epidermidis 3519 (organism code HH); BHI agar, 35-37 °C, 20 to 24 hours; unit assumed
Method: as §1, §2, §3

Row | SMILES | MIC [1] | MIC (Escherichia coli SS) | MIC [2] | MIC [3] | MIC [4] | MIC [5] | MIC [6] | MIC [7] | MIC [8] | MIC (Candida albicans CCH 442) | MIC [9] | MIC [10] | MIC [11] | MIC [12] | MIC [13] | MIC [14] | MIC [15] | MIC (Escherichia coli DC-2) | MIC [16] | MIC [17] | other results
1 | C=CCN(C)[C@H]1C[C@@H](C)O[C@@H](O[C@@H]2[C@@H](C)C(=O)[C@@H](C)C(=O)O[C@H](CC)[C@@]3(C)OC(=O)N[C@@H]3[C@@H](C)C(=O)[C@H](C)C[C@@]2(C)OCC=Cc2cnc3ccccc3c2)[C@@H]1O [Example 6, Compound of Formula (II); R is -CH2CH=CH-(3-quinolyl), R^p is H, W is absent, R^w is H, R^1 is CH2CH=CH2, R^2 is CH3] | 0.05 µg/mL | 0.2 µg/mL | 0.2 µg/mL | 0.05 µg/mL | 0.05 µg/mL | 0.02 µg/mL | 3.1 µg/mL | 16 µg/mL | 0.05 µg/mL | > 100 µg/mL | 4 µg/mL | 0.05 µg/mL | 0.1 µg/mL | 0.05 µg/mL | > 100 µg/mL | 0.25 µg/mL | > 100 µg/mL | 100 µg/mL | 0.02 µg/mL | 0.1 µg/mL | MIC [18]: 0.2 µg/mL; MIC [19]: ≤ 0.004 µg/mL; MIC [20]: ≤ 0.004 µg/mL; MIC (Escherichia coli JUHL): 50 µg/mL; MIC [21]: 0.02 µg/mL; MIC [22]: 0.2 µg/mL; MIC [23]: 0.2 µg/mL
2 | CC[C@H]1OC(=O)[C@H](C)C(=O)[C@H](C)[C@@H](O[C@@H]2O[C@H](C)C[C@H](N(C)CCF)[C@H]2O)[C@](C)(OCC=Cc2cnc3ccccc3c2)C[C@@H](C)C(=O)[C@H](C)[C@H]2NC(=O)O[C@@]21C [Example 7, Compound of Formula (II); R is -CH2CH=CH-(3-quinolyl), R^p is H, W is absent, R^w is H, R^1 is CH2CH2F, R^2 is CH3] | 0.2 µg/mL | 0.39 µg/mL | 1.56 µg/mL | 0.1 µg/mL | 0.05 µg/mL | 0.01 µg/mL | 12.5 µg/mL | 16 µg/mL | 0.1 µg/mL | > 100 µg/mL | 8 µg/mL | 0.05 µg/mL | 0.39 µg/mL | 0.05 µg/mL | > 100 µg/mL | 0.25 µg/mL | > 100 µg/mL | > 100 µg/mL | 0.01 µg/mL | 0.1 µg/mL | MIC [18]: 0.39 µg/mL; MIC [19]: 0.03 µg/mL; MIC [20]: 0.03 µg/mL; MIC (Escherichia coli JUHL): > 100 µg/mL; MIC [21]: 0.05 µg/mL; MIC [22]: 0.39 µg/mL; MIC [23]: 0.2 µg/mL
3 | CC[C@H]1OC(=O)[C@H](C)C(=O)[C@H](C)[C@@H](O[C@@H]2O[C@H](C)C[C@H](N(C)Cc3ccccc3)[C@H]2O)[C@](C)(OCC=Cc2cnc3ccccc3c2)C[C@@H](C)C(=O)[C@H](C)[C@H]2NC(=O)O[C@@]21C [Example 8] | 0.2 µg/mL (≈ 0.238 µM) | 0.78 µg/mL (≈ 0.926 µM) | 0.39 µg/mL (≈ 0.463 µM) | 0.2 µg/mL (≈ 0.238 µM) | 0.1 µg/mL (≈ 0.119 µM) | 0.02 µg/mL (≈ 0.0238 µM) | > 100 µg/mL | > 128 µg/mL | 0.2 µg/mL (≈ 0.238 µM) | > 100 µg/mL | 4 µg/mL (≈ 4.75 µM) | 0.02 µg/mL (≈ 0.0238 µM) | 0.2 µg/mL (≈ 0.238 µM) | 0.2 µg/mL (≈ 0.238 µM) | > 100 µg/mL | 0.5 µg/mL (≈ 0.594 µM) | > 100 µg/mL | > 100 µg/mL | 0.02 µg/mL (≈ 0.0238 µM) | 0.2 µg/mL (≈ 0.238 µM) | MIC [18]: 0.2 µg/mL (≈ 0.238 µM); MIC [19]: 0.03 µg/mL (≈ 0.0356 µM); MIC [20]: 0.03 µg/mL (≈ 0.0356 µM); MIC (Escherichia coli JUHL): > 100 µg/mL; MIC [21]: 0.05 µg/mL (≈ 0.0594 µM); MIC [22]: 0.05 µg/mL (≈ 0.0594 µM); MIC [23]: 0.2 µg/mL (≈ 0.238 µM)
4 | CC[C@H]1OC(=O)[C@H](C)C(=O)[C@H](C)[C@@H](O[C@@H]2O[C@H](C)C[C@H](N(C)CC#N)[C@H]2O)[C@](C)(OCC=Cc2cnc3ccccc3c2)C[C@@H](C)C(=O)[C@H](C)[C@H]2NC(=O)O[C@@]21C [Example 9, Compound of Formula (II); R is -CH2CH=CH-(3-quinolyl), R^p is H, W is absent, R^w is H, R^1 is CH2-CN, R^2 is CH3-] | 0.1 µg/mL | 0.2 µg/mL | 12.5 µg/mL | 0.1 µg/mL | 0.1 µg/mL | 0.01 µg/mL | 12.5 µg/mL | 128 µg/mL | 0.1 µg/mL | > 100 µg/mL | 8 µg/mL | 0.01 µg/mL | 0.78 µg/mL | 0.05 µg/mL | > 100 µg/mL | 0.5 µg/mL | > 100 µg/mL | > 100 µg/mL | 0.01 µg/mL | 0.1 µg/mL | MIC [18]: 0.39 µg/mL; MIC [19]: 0.03 µg/mL; MIC [20]: 0.03 µg/mL; MIC (Escherichia coli JUHL): > 100 µg/mL; MIC [21]: 0.02 µg/mL; MIC [22]: 0.2 µg/mL; MIC [23]: 0.2 µg/mL
5 | CC[C@H]1OC(=O)[C@H](C)C(=O)[C@H](C)[C@@H](O[C@@H]2O[C@H](C)C[C@H](N(C)CC3CC3)[C@H]2O)[C@](C)(OCC=Cc2cnc3ccccc3c2)C[C@@H](C)C(=O)[C@H](C)[C@H]2NC(=O)O[C@@]21C [Example 15, Compound of Formula (II); R is -CH2CH=CH-(3-quinolyl), R^p is H, W is absent, R^w is H, R^1 is CH2-(cyclo-C3H5), R^2 is CH3] | 0.39 µg/mL | 0.2 µg/mL | 0.78 µg/mL | 0.39 µg/mL | 0.05 µg/mL | 0.02 µg/mL | 25 µg/mL | > 128 µg/mL | 0.39 µg/mL | > 100 µg/mL | 8 µg/mL | 0.05 µg/mL | 0.2 µg/mL | 0.39 µg/mL | > 100 µg/mL | 0.25 µg/mL | > 100 µg/mL | > 100 µg/mL | 0.02 µg/mL | 0.39 µg/mL | MIC [18]: 0.1 µg/mL; MIC [19]: 0.03 µg/mL; MIC [20]: 0.03 µg/mL; MIC (Escherichia coli JUHL): > 100 µg/mL; MIC [21]: 0.05 µg/mL; MIC [22]: 0.39 µg/mL; MIC [23]: 0.39 µg/mL
